The values that follow come from ChEMBL document CHEMBL5120948, “Ynamide Electrophile for the Profiling of Ligandable Carboxyl Residues in Live Cells and the Development of New Covalent Inhibitors” (J Med Chem, 2022).

Data set [1] concerns A549. Nature of the data set: cells. As to conditions: Homo sapiens, A549, 72 h. Format: functional, cell-based.
Description: Growth inhibition of human A549 cells expressing EGFR incubated for 72 hrs by CCK8 assay
For data set [2], the system named is NCI-H3255. The data set is described as follows: cells. Format: functional, cell-based. As to conditions: Homo sapiens, NCI-H3255, 72 h.
Description: Growth inhibition of human NCI-H3255 cells harbouring EGFR L858R mutant incubated for 72 hrs by CCK8 assay
The target in data set [3] is T1, Albumin (Bos taurus, UniProt P02769). The data set is described as follows: Binding affinity to bovine serum albumin assessed as increase in fluorescence intensity at 10 uM measured after 4 hrs by TAMRA-N3 based In-gel fluorescence scanning analysis. As to conditions: cattle.
For data set [4], the target named is Delta(3,5)-Delta(2,4)-dienoyl-CoA isomerase, mitochondrial (Homo sapiens) (UniProt Q13011). Nature of the data set: Binding affinity to ECH1 in human HepG2 cells at 100 uM incubated for 8 hrs by pull-down/Western blot analysis. Format: cell-based. On the technique in general: A western blot detects proteins with antibodies after separation by electrophoresis.

For data set [5], the target named is T1, Albumin. Nature of the data set: Binding affinity to bovine serum albumin assessed as increase in fluorescence intensity at 10 uM measured after 4 hrs in presence of N,4-Dimethyl-N-(phenylethynyl)benzenesulfonamide by TAMRA-N3 based In-gel fluorescence scanning analysis. As to conditions: cattle.
The target in data set [6] is Aldehyde dehydrogenase 1A1 (Homo sapiens) (UniProt P00352). Nature of the data set: Binding affinity to ALDH1 in human HepG2 cells at 100 uM incubated for 8 hrs by pull-down/Western blot analysis. Format: cell-based.
The species named for data set [7] is Homo sapiens. Nature of the data set: Binding affinity to beta-amylase (unknown origin) measured after 30 mins by TAMRA-N3 based In-gel fluorescence scanning analysis. As to conditions: dose 5-50 µM.
In data set [8] the test system is HepG2. The data set is described as follows: Binding affinity to G3P in human HepG2 cells at 100 uM incubated for 8 hrs by pull-down/Western blot analysis. Format: cell-based.
In data set [9] the test system is HepG2. The data set is described as follows: Inhibition of ERK phosphorylation in human HepG2 cells at 5 to 40 uM by Western blot analysis. As to conditions: dose 5-40 µM. Format: cell-based.
Data set [10] deals with Dual specificity mitogen-activated protein kinase kinase 2 (Homo sapiens) (UniProt P36507). Nature of the data set: Stabilization of MEK2 in human HepG2 cells assessed as increase in thermal stability at 50 uM incubated for 3 hrs by cellular thermal shift assay. Format: cell-based.
Data set [11] concerns the target Aldehyde dehydrogenase, mitochondrial (Homo sapiens) (UniProt P05091). The data set is described as follows: Binding affinity to ALDH2 in human HepG2 cells at 100 uM incubated for 8 hrs by pull-down/Western blot analysis. Format: cell-based.
Data set [12] deals with Catalase (Homo sapiens) (UniProt P04040). Nature of the data set: Binding affinity to catalase (unknown origin) measured after 30 mins by TAMRA-N3 based In-gel fluorescence scanning analysis. As to conditions: dose 5-50 µM.
Data set [13] has as its target Dual specificity mitogen-activated protein kinase kinase 2 (Homo sapiens) (UniProt P36507). The data set is described as follows: Binding affinity to MEK2 in human HepG2 cells at 100 uM incubated for 8 hrs by pull-down/Western blot analysis. Format: cell-based.
Data set [14] can be described thus: Binding affinity to glutamic acid in aqueous solution measured within 3 hrs by HPLC analysis.
Data set [15] addresses T1, Albumin. Nature of the data set: Binding affinity to bovine serum albumin assessed as increase in fluorescence intensity at 5 uM measured after 30 mins by TAMRA-N3 based In-gel fluorescence scanning analysis. As to conditions: cattle, 0.5 h.
Data set [16] deals with GTPase KRas (Homo sapiens), P01116 [G12D]. The data set is described as follows: Binding affinity to KRAS G12D mutant (unknown origin) measured after 30 mins by TAMRA-N3 based In-gel fluorescence scanning analysis. As to conditions: dose 5-50 µM.
Data set [17] in a line: Stability of the compound in DMSO/H2O solution measured after 7 days by 1H-NMR analysis. Format: physicochemical. As to conditions: 168 h; time 7 day.
For data set [18], the target named is ATP-dependent translocase ABCB1 (Homo sapiens, UniProt P08183). The data set is described as follows: Binding affinity to MDR1 in human HepG2 cells at 10 uM incubated for 8 hrs by pull-down/LC-MS/MS analysis. As to conditions: hepg2, 8 h. Format: cell-based.
Data set [19] addresses Epidermal growth factor receptor (Homo sapiens) (UniProt P00533). The data set is described as follows: Inhibition of EGFR phosphorylation in human NCI-H3255 cells at 0.22 to 20 uM. Format: cell-based. As to conditions: dose 0.22-20 µM.
For data set [20], the system named is Epidermal growth factor receptor (Homo sapiens), P04626+P00533+Q15303+P21860 [L858R]. Nature of the data set: Binding affinity to EGFR L858R mutant in mouse BaF3 cells at 10 uM incubated for 8 hrs by pull-down/Western blot analysis. Format: cell-based.
Data set [21] has as its system BaF3. The data set is described as follows: Growth inhibition of mouse BaF3 cells harbouring EGFR L858R mutant incubated for 72 hrs by CCK8 assay. As to conditions: BaF3, 72 h. Format: functional, cell-based. Background: Formazan colour is commonly taken as a measure of viable cells.
For data set [22], the target named is Leucine-rich PPR motif-containing protein, mitochondrial (Homo sapiens) (UniProt P42704). Nature of the data set: Binding affinity to LPPRC in human HepG2 cells at 10 uM incubated for 8 hrs by pull-down/LC-MS/MS analysis. Format: cell-based.
Data set [23] addresses Epidermal growth factor receptor (Homo sapiens, UniProt P00533, L858R). The data set is described as follows: Inhibition of EGFR L858R mutant (unknown origin) using peptide substrate by FRET assay.
Data set [24] deals with Ubiquitin-like modifier-activating enzyme 1 (Homo sapiens) (UniProt P22314). The data set is described as follows: Binding affinity to UBA1 in human HepG2 cells at 10 uM incubated for 8 hrs by pull-down/LC-MS/MS analysis. Format: cell-based.
Data set [25] has as its target Epidermal growth factor receptor (Homo sapiens) (UniProt P00533). Nature of the data set: Inhibition of EGFR in human NCI-H3255 cells assessed as decrease in AKT phosphorylation level at 0.22 to 20 uM. Format: cell-based. As to conditions: dose 0.22-20 µM.
Data set [26] relates to NCI-H3255. Nature of the data set: Inhibition of colony formation in human NCI-H3255 cells at 1.1 uM by Giemsa staining based assay. Format: functional, cell-based.
Data set [27] deals with Epidermal growth factor receptor (Homo sapiens), P00533 [L858R]. The data set is described as follows: Binding affinity to EGFR L858R mutant in human NCI-H3255 cells assessed as increase in thermal stability at 0.5 uM incubated for 3 hrs by cellular thermal shift assay. Format: cell-based.
The test system is the same in data set [28]. Nature of the data set: Binding affinity to EGFR L858R mutant in human NCI-H3255 cells at 10 uM incubated for 8 hrs by pull-down/Western blot analysis. Format: cell-based.
In data set [29] the target is Glutathione S-transferase 3, mitochondrial (Homo sapiens) (UniProt O14880). The data set is described as follows: Binding affinity to MGST3 in human HepG2 cells at 10 uM incubated for 8 hrs by pull-down/LC-MS/MS analysis. Format: cell-based.
A short description of data set [30]: Growth inhibition of mouse Ba/F3 EGFR cells incubated for 72 hrs by CCK8 assay. Format: functional, cell-based.
Data set [31] concerns NCI-H3255. Nature of the data set: Inhibition of colony formation in human NCI-H3255 cells at 10 uM by Giemsa staining based assay. Format: functional.
The target in data set [32] is Epidermal growth factor receptor (Homo sapiens) (UniProt P00533). Nature of the data set: Inhibition of EGFR in human NCI-H3255 cells assessed as decrease in ERK phosphorylation level at 0.22 to 20 uM. Format: cell-based. As to conditions: dose 0.22-20 µM.

Calls of active or inactive are those of the source. The calls are words filed in the database; no cut-off is given here.

T1 sequence (P02769 whole entry): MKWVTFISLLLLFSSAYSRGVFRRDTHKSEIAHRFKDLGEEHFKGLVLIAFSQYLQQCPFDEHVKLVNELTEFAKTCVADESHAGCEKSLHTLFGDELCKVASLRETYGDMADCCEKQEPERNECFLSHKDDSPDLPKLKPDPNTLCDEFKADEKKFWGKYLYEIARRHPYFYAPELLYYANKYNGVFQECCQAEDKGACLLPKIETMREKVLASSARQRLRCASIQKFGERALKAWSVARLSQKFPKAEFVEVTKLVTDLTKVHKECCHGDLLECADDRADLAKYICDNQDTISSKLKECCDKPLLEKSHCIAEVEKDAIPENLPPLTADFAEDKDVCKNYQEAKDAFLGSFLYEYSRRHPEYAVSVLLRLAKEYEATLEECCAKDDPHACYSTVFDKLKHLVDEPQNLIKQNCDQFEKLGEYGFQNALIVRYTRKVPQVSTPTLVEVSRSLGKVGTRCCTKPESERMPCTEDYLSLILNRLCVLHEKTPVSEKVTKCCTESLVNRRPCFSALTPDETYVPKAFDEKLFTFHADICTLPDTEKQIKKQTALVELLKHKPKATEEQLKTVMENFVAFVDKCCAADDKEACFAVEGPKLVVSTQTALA
Sequence of Dual specificity mitogen-activated protein kinase kinase 2 (Homo sapiens) (P36507 whole entry): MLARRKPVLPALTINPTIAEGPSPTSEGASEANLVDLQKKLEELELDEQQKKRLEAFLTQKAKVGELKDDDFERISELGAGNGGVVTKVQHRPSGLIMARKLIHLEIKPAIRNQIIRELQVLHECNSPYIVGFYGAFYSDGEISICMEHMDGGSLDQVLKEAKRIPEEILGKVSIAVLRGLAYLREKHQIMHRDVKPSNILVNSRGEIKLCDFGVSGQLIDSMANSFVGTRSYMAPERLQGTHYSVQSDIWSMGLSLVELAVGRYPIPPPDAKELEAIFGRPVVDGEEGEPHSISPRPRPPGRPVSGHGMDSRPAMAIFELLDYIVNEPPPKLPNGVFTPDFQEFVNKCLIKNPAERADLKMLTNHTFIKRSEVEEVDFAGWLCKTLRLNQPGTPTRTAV
Sequence of Aldehyde dehydrogenase 1A1 (Homo sapiens) (P00352 whole entry): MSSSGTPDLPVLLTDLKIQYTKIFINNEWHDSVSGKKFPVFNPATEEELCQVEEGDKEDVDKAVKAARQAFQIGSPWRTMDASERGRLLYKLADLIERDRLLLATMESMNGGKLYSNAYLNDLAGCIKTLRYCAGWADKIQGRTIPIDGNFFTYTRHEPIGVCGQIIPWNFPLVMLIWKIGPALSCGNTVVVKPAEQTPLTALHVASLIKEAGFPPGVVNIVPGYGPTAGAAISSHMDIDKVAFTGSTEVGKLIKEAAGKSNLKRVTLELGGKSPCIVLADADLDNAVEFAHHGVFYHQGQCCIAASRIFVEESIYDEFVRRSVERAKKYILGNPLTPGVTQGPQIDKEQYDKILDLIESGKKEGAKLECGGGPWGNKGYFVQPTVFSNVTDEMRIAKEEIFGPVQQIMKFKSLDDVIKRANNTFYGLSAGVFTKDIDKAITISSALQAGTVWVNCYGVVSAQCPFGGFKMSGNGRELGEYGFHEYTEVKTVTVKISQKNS
Sequence of GTPase KRas (Homo sapiens), P01116 [G12D] (P01116 whole entry G12D, looked up): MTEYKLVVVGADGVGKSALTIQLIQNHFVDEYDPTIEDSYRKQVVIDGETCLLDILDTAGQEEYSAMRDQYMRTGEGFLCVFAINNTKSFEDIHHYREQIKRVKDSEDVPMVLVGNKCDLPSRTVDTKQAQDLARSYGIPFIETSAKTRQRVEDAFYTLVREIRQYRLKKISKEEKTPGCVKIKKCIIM
Sequence of Glutathione S-transferase 3, mitochondrial (Homo sapiens) (O14880 whole entry): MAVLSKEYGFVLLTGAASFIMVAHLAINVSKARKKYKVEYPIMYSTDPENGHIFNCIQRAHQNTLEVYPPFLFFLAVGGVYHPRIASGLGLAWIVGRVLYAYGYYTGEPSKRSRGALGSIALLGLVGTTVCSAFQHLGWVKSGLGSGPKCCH
Sequence of Aldehyde dehydrogenase, mitochondrial (Homo sapiens) (P05091 whole entry): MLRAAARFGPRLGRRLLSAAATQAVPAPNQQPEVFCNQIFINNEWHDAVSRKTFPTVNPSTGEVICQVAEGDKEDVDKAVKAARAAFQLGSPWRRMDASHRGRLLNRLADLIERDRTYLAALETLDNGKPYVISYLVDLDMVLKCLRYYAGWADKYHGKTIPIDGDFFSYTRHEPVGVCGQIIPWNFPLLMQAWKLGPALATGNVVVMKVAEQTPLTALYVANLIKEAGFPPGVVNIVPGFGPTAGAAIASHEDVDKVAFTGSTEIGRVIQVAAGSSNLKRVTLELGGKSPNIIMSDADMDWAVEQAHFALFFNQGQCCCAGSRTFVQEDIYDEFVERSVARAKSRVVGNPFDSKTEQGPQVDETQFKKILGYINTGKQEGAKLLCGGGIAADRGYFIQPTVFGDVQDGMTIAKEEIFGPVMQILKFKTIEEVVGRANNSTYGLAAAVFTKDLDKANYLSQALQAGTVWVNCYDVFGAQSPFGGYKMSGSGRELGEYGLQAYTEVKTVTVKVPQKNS
Sequence of Ubiquitin-like modifier-activating enzyme 1 (Homo sapiens) (P22314 whole entry): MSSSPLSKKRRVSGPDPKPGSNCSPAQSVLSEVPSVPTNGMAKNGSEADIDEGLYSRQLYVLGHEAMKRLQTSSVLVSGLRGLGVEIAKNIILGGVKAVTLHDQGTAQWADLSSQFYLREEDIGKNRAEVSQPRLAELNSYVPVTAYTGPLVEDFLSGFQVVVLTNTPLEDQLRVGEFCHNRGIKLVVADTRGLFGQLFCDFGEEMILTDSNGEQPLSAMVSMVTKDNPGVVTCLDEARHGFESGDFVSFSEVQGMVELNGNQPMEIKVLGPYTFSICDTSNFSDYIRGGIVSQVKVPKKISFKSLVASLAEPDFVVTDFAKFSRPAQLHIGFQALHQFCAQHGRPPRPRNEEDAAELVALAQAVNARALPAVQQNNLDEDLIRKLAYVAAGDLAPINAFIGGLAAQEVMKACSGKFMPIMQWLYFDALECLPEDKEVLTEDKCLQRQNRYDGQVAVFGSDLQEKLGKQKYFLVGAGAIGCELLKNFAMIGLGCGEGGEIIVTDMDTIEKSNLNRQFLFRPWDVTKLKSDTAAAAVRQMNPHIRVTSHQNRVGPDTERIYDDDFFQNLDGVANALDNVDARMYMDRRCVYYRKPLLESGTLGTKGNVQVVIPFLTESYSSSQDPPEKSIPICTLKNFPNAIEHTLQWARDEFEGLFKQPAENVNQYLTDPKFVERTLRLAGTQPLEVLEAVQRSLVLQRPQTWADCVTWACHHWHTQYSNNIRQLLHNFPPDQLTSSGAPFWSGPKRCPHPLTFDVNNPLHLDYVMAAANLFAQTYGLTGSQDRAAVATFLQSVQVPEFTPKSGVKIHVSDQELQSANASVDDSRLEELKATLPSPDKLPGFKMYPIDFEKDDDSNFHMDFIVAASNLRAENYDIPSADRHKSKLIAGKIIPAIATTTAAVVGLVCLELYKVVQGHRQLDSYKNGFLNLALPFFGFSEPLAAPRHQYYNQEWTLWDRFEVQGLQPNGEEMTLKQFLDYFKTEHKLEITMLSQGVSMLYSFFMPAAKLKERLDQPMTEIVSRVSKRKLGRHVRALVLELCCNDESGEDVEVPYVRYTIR
Sequence of ATP-dependent translocase ABCB1 (P08183 whole entry): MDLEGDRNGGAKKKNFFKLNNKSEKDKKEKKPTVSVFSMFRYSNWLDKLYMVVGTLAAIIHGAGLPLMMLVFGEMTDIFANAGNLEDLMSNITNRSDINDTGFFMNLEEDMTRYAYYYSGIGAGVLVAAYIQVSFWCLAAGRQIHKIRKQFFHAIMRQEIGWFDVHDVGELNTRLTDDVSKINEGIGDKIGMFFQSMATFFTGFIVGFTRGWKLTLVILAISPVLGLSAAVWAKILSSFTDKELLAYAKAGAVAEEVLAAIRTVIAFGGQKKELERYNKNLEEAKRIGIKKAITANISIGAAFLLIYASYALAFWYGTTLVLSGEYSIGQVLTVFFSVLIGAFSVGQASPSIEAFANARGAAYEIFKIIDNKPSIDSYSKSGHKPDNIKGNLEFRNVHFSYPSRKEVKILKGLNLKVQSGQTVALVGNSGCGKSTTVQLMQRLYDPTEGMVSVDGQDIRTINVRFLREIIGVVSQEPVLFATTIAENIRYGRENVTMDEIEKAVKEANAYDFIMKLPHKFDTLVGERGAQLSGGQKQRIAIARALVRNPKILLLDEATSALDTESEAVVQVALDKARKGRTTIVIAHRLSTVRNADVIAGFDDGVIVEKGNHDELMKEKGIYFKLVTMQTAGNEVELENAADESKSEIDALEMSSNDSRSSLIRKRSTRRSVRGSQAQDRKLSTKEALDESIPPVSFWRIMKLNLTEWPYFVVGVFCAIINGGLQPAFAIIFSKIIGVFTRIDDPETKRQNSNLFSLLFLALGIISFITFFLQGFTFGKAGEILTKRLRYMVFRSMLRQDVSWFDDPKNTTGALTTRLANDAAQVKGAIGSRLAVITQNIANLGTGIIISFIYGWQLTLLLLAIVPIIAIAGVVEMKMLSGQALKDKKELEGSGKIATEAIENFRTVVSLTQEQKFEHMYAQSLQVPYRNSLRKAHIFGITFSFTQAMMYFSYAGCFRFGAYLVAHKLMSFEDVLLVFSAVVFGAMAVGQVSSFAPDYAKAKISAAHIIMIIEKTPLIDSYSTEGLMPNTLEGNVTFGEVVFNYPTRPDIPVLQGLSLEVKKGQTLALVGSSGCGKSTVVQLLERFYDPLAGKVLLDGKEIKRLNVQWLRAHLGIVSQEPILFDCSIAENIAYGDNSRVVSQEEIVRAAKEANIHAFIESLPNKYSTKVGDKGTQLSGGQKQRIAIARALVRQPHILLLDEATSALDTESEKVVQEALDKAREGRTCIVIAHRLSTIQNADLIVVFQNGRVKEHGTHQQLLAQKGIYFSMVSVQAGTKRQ

By IC50 is commonly meant the concentration that gives 50% inhibition. High values mean weaker potency in that assay, low ones greater potency in that assay. With `C#Cc1cccc(Oc2ncnc3ccc(OCc4ccc(S(=O)(=O)NC)cc4)cc23)c1`, the IC50 was over 50 µM in [1] and 7.8 µM in data set [2].
In the case of `C#Cc1ccc(OCc2ccc(S(=O)(=O)N(C)C#C)cc2)cc1`, the result in data set [3] was Active.
What is called inhibition is the relative decrease from the control value, in per cent. In the case of `C#Cc1ccc(S(=O)(=O)N(C)C#C)cc1`, the outcome in data set [4], in [6], in [7], in data set [8], in data set [10] and in data set [11] was Active. Moreover, the outcome in data set [12], in data set [13], in data set [14] and in data set [16] was Active. Also, the result in data set [5], in data set [3] and in [15] was Active. The inhibition entry in data set [9] was “Active”. In addition, the Stability result in data set [17] was “Stable”.
On to `C#Cc1cccc(Oc2ncnc3ccc(OCc4ccc(S(=O)(=O)N(C)C#C)cc4)cc23)c1`, for which the outcome in data set [18] and in [3] was Active. In addition, the inhibition entry in data set [19], in [25], in data set [26] and in data set [32] was “Active” in each case. Besides, the outcome in data set [20], in [22], in [24], in data set [27], in data set [28] and in data set [29] was Active. In addition, the IC50 in [21] is 1.71 µM; in [1], 7.61 µM; in [23], 5.67 µM; in [2], 1.89 µM; in [30] it was 6.48 µM. The compound also yielded an inhibition at 10 µM in data set [31] of 100%.
